“Also recorded” adds a separate entry of the source.
Assays:
Assay type in all cases: cell-based
[1] = test system: MCF-7 cells; test: CCK-8 antiproliferative activity on MCF-7 cells
Experimental: (§1) DMEM high glucose medium and fetal calf serum were obtained from Gibco (New York, NY, USA), and cell counting Kit-8 solution was purchased from Meilunbio (Dalian, China). Paraformaldehyde and Crystal Violet were purchased from Biosharp (Hefei, China). The MCF-7 and L-02 cell lines were purchased from the Shanghai Institute of Biochemistry (Shanghai, China) All the target compounds and 5-fluorouracil (5-Fu) were dissolved with DMSO at a concentration of 20 mM. Cell culture medium was a mixture of DMEM medium, 10% fetal bovine serum, and 1% penicillin–streptomycin solution stored at […]. The cells were grown at 37 °C under 5% CO2.
(§2) Cells were seeded into 96 well plates with 4000 cells/well using DMEM solution and incubated in a humid atmosphere containing 5% CO2 at 37 °C for 24 h. Compounds with different concentrations (200 μM, 100 μM, 50 μM, 25 μM, 12.5 μM, 6.25 μM, 3.125 μM, 1.5625 μM) were added to the culture medium for 24 h. After that, CCK-8 reagent (10 μL) was added under dark conditions and incubated the plate in a CO2 incubator at 37 °C for 2 h. After incubation, the absorbance was measured using an enzyme-linked immunosorbent assay at a wavelength of 450 nm. Cell survival rate was calculated as a percentage of the control group.
(§3) By using Graph Pad Prism 8.0 software, the concentration that inhibits 50% of maximum cell proliferation was determined to be IC50 value.

[2] = test system: human normal hepatocyte L-O2; test: CCK-8 cytotoxicity against normal hepatocyte L-O2 cells; conditions: for IC50: human normal hepatocyte L-O2, CCK-8, 24 h
Experimental: We have selected compounds A7, A8, A9, and A14 with relatively low IC50 values, which are considered to have more potential and are more meaningful for further research. The toxic effects of compounds A7, A8, A9, and A14 on normal hepatocytes cells L-O2 were assessed in this work to examine the selective toxicity of the new compounds on cancer cells without harming normal cells. The selectivity index was calculated as a ratio of L-02 IC50/MCF-7 IC50 for these four compounds. […] Therefore, A8 and A14 were chosen as representative medications for future research after thorough evaluation.
as §1, §2, §3

[3] = test system: MCF-7 cells; test: Migration ability assay (wound healing / scratch); conditions: various concentrations, 24 h and 48 h, vs control group
Experimental: An obvious feature of breast cancer cells is their strong migration ability. In order to study the inhibitory effect of compounds on breast cancer cells migration, the scratch distances of compounds A8 and A14 on MCF-7 cells at different concentrations were measured by wound healing experiments. […] Moreover, under similar concentrations, the inhibitory migration effect of the target compound on MCF-7 is more excellent than that of the control drug 5-Fu.
MCF-7 cells were seeded into six-well plates at a density of 3000 cells/well and growing for 24 h. Scratches were made in confluent monolayers with 200 μL pipette tip. After that, each well was washed with PBS buffer 3 times to remove non-adherent cell debris. MCF-7 cells were continually incubated with different concentrations of compounds or positive control for 24 or 48 h. The area of cells migrated across the wound was photographed using phase contrast microscopy at 0 h, 24 h, and 48 h. The migration distance of cells into the wound area was measured by ImageJ2 software at room temperature.

[4] = test system: MCF-7 cells; test: Cell colony formation assay; conditions: 7 days treatment, drug concentrations greater than 8 µmol/L, vs blank control
Experimental: MCF-7 cells were seeded into six-well plates at a density of 1000 cells/well and cultivated for 24 h. After that, the cells were continually incubated with different concentrations of compounds and positive control for 7 days. Each well was carefully rinsed three times with PBS buffer quickly at room temperature. Collected cells were fixed for 1 h at room temperature by adding 2 mL of 4% paraformaldehyde solution. The results were analyzed using the ImageJ software.

Row | Compound | IC50 ([1]; Homo sapiens, MCF7, CCK-8, 24 h treatment) [µM] | IC50 [2] [µM] | Selectivity Index (SI) ([2]; ratio L-02 IC50/MCF-7 IC50) | IC50 ([1]; CCK-8, 24 h treatment) [µM] | Inhibition of MCF-7 cell migration (scratch distance) [3] | Colony formation of MCF-7 cells [4]
1 | O=c1[nH]cc(F)c(=O)[nH]1 [Compound 5-Fu, 5-fluorouracil, reference compound] | 169 | 200 | 1.18 |  |  | 
2 | COc1cc(C(=O)/C=C/c2ccc(C(=O)NCc3cccs3)cc2)cc(OC)c1OC [Compound A7, (E)-4-(3-oxo-3-(3,4,5-trimethoxyphenyl)prop-1-en-1-yl)-N-(thiophen-2-ylmethyl) benzamide] |  |  |  | 19.1 |  | 
3 | COc1cc(C(=O)/C=C/c2ccc(C(=O)NCC3CCOC3)cc2)cc(OC)c1OC (stereo not drawn) [Compound A8, (E)-4-(3-oxo-3-(3,4,5-trimethoxyphenyl)prop-1-en-1-yl)-N-((tetrahydrofuran-3-yl)methyl) benzamide] |  | 47.2 |  | 16.7 | inhibited MCF-7 cell migration; also recorded: effectively inhibited the migration of MCF-7 cells in a dose-dependent manner | 
4 | COc1cc(C(=O)/C=C/c2ccc(C(=O)NCC3CC3)cc2)cc(OC)c1OC [Compound A9, (E)-N-(cyclopropylmethyl)-4-(3-oxo-3-(3,4,5-trimethoxyphenyl)prop-1-en-1-yl) benzamide] |  | 35.3 |  | 19.6 |  | 
5 | COc1cc(C(=O)/C=C/c2ccc(C(=O)OCCCSc3ccncc3)cc2)cc(OC)c1OC [Compound A14, 3-(pyridin-4-ylthio) propyl (E)-4-(3-oxo-3-(3,4,5-trimethoxyphenyl)prop-1-en-1-yl) benzoate] |  | 41.2 |  |  | inhibited MCF-7 cell migration; also recorded: effectively inhibited the migration of MCF-7 cells in a dose-dependent manner | significantly reduced

From publication PMC10649752, “Design and Synthesis of Novel Chalcone Derivatives: Anti-Breast Cancer Activity Evaluation and Docking Study” (International Journal of Molecular Sciences, 2023)
